In US20230330089A1, “COVID PREVENTION AND TREATMENT USING AN INTEGRIN INHIBITOR” (priority 2022, published 2023):

Tested on: SARS-CoV-2 pseudovirus variants
Assay type: cell-based

| Structure (SMILES) | inhibition of Beta and Delta variant pseudovirus infection | inhibition of D614G pseudovirus infection | inhibition of D614G pseudovirus infection, single agent vs positive control | inhibition of D614G, Delta and Omicron pseudovirus infection | inhibition of Omicron and Delta pseudovirus infection compared with other variants | inhibition of infection by D614, D614G, N501Y, E484K, N+E, NEK, R685A pseudovirus variants |
| --- | --- | --- | --- | --- | --- | --- |
| COc1ccc(S(=O)(=O)N[C@@H](CNc2nc(C)nc(N3CCC(c4ccc5c(n4)NCCC5)CC3)c2C)C(=O)O)cc1 [GLPG-0187] | most significant decrease in pseudovirus infection by the Delta variant | inhibited pseudovirus infection in a dose-dependent manner | inhibited pseudovirus infection | effectively blocked | more significantly than other variants | inhibition of viral infection of each variant |
| CNS(=O)(=O)Nc1nccc(Cc2c(C)c3ccc(Oc4ncccn4)cc3oc2=O)c1F [VS-6766] |  |  | inhibited pseudovirus infection |  |  |  |
